One assay concerns R28 cells. Description: Dye transfer/scrape loading gap junction assay in R28 cells. In kind it is cell-based, rat. The following applies: 10 μM for 40 minutes. The procedure: To determine the effects of the compounds of the invention on gap junctions, […] R28 cells and lucifer yellow dye and rhodamine dextran were used to study gap junction. (Das, S.; Lauer, J.; Barnett, M.; Lin, D.; Akoev, V.; Battina, S.; Hua, D. H.; Takemoto, D. J. PKCγ phosphorylates connexin50 on serine-430. A presentation at 2006 ARVO Annual Meeting, Apr. 30-May 4, 2006, Fort Lauderdale, Fla.). […] The cells were treated with different compounds as shown @ 10 μM for 40 minutes. A mixture of lucifer yellow (LY) and rhodamine dextran (RD) was added to the cells at the center of the coverslip. Two cuts across the coverslip were made to form a transient tear in the plasma membranes of the cells to permit dye transfer through gap junctions. Cells were incubated with the dye for 20 minutes, then fixed and examined by fluorescent microscopy. For quantitative analysis the extent of dye transfer was estimated by counting the number of LY and RD labeled cells in the microscopic field and graphed. […] PQ3 is useful as a drug having reduced gap junction inhibitory activity. The gap junction activity of other compounds of the invention may be tested as described herein without the use of undue experimentation.
Gap junction activity assay. R28 cells were grown to 90% confluency on coverslips. They were treated with PQ1 at 10 μM for 40 min. A mixture of 1% each, in PBS, Lucifer yellow (LY) and Rhodamine Dextran (RD) (Molecular Probes, Eugene, Oreg.) were added to the cells at the center of the coverslip. Two cuts across the coverslip were made to form a transient tear in the plasma membranes of the cells to permit dye entry into cells. Cells were incubated with 2.5 μl of both of the dyes for 20 min, then fixed in 2.5% paraformaldehyde, washed in PBS and examined by fluorescent microscopy using a Nikon C1 confocal microscopy. For quantitation, the extent of dye transfer was calculated by counting the number of LY-labeled cells from the initial scrape with subtraction of RD-labeled cells, as a cell damage control, in the microscopic field. Four points per slide were photographed. The experiments were repeated six times, and data are means±SEM.

For assay [1], the system named is MDA-MB-453 human breast cancer cells. Description: Soft agar colony growth, MDA-MB-453 cells. In kind it is cell-based. The following applies: for effect on breast cancer cell colony growth: Table 2. The procedure: FIG. 3(A) MDA-MB-453 and (B) T47D human breast cancer cells were treated with 10 μM of various quinolines for 7 days. Base agar plates were prepared containing 0.8% agar and 0.4% agar in Ham's F12. Cells (5×10^4 cells/33 mm well) were suspended in 100 μl of Ham's F12 with 0.4% agar and plated. These plates were maintained at 37° C. for 7 days and examined for the presence of colonies. Individual colonies of 40 μm or greater were examined. […] However, PQ3 caused a 2.3-fold increase in colony growth in MDA-MB-453 cells and PQ2 caused a 2.6-fold increase in T47D colony growth compared to DMSO. FIGS. 7 and 8 show MDA-MB-453 and T47D colony growth for various concentrations of PQ1 and SA tested for 7 days. The procedures are generally as described above. The cell colony growth decreased using 10 and 100 nM PQ1 for both cell types. Colony Growth Assay: T47D human breast cancer cells were treated with PQ1. Base agar plates were prepared containing 0.8% agar and 0.4% agar in Ham's F12. Cells (5×10^4 cells/33 mm2 well) were suspended in 100 μl of Ham's F12 with 0.4% agar and plated. These plates were maintained at 37° C. for 7 days and examined for the presence of colonies. Individual colonies of 40 um or greater were examined.

Another assay has as its system MDA-MB-453 cells. Description: Gap junction activity (GJIC), flow cytometry of dye coupling, MDA-MB-453 cells. In kind it is cell-based, human. The following applies: for effect on gap junction intercellular communication: Table 1. The procedure:
FIG. 4(A) MDA-MB-453 and (B) T47D cells were treated with low (500 nM) and high (10 μM) concentrations of PQs for 24 hours. Monolayers of acceptor cell population were grown on 25-cm flasks in the presence of Vibrant DiD. Vybrant DiD in acceptor cells is not able to pass through the gap junctions because of its hydrophobic property. Single cell suspensions of donor treated cells were prepared, labeled with 0.05 μg/ml calcein-AM, incubated at 37 C for 5 minutes. Quantification of dye coupling between the donor and acceptor cells was assessed by dual-excitation flow cytometry. […] Cells treated with 10 μM PQ3 have approximately 40-50% decrease in gap junction activity compared control or DMSO.
In general terms: Flow cytometry measures light scatter and fluorescence of single cells or particles in a stream.

For a further assay, the system named is MCF-7. Briefly: Gap junction intercellular communication, MCF-7 cells. In kind it is cell-based, human. As to conditions: Table 1.
Another assay concerns ZR75. Description: Gap junction intercellular communication, ZR75 cells. The assay is classed as cell-based, human. The following applies: Table 1.
In another assay the test system is HT29. Briefly: Gap junction intercellular communication, HT29 colon cancer cells. In kind it is cell-based. As to conditions: Table 3.
For another assay, the system named is SW620 colon cancer cells. Description: Gap junction activity, SW620 colon cancer cells. In kind it is cell-based. As for the experimental part:
However, PQ3 has an opposite effect on mammary cancer cell lines. […] A summary of PQ-mediated GJIC activity and colony growth in breast and colon cancer cells is presented in Tables 1, 2, and 3, as well as FIGS. 10-13. In FIG. 10, SW620 cells were dosed for 24 hours with PQ1 at 100, 200, 300, and 500 nM. The gap junction activity was measured as a percent of control, as previously described. It was seen that all concentrations on PQ1 increased the gap junction activity in SW620 colon cancer cells as compared to the control. In FIG. 11, the effect of PQ1 on the expression of PKCγ was studied at concentrations of 100, 200, 300 and 500 nM PQ1 for 24 hours. It is seen in FIG. 11 that PQ1 has no effect on the expression of PKCγ at the levels tested. In FIGS. 12 and 13, the effect of PQ1 on the colony growth of SW620 colon cancer cells was measured with 1-100 nM PQ1 (FIG. 12) and 10 uM PQ1 (FIG. 13).

Where “and” joins values, the source holds several entries; their conditions need not be identical. Equal entries are not always repeated.

As for `COc1cc(NCCCN)c2nccc(C)c2c1Oc1cccc(C(F)(F)F)c1.O=C(O)CCC(=O)O` [PQ1, 6-Methoxy-8-[(3-aminopropyl)amino]-4-methyl-5-(3-trifluoromethylphenyloxy) quinoline succinic acid], in the assay on R28 cells (compared to untreated control cells), the “block of lucifer yellow dye transfer through gap junctions” value is recorded as “hardly any passage of the dye”. Also, in assay [1] (10 μM, 7 days, compared to control), the colony growth attenuation is reported as 80-95%. Also, the cell colony growth result in assay [1] (10 and 100 nM, 7 days) is “decreased”. Besides, the “effect on breast cancer cell colony growth” value in assay [1] was “Decrease”. The “increase of gap junction activity” value with MDA-MB-453 cells (MDA-MB-453, 500 nM, 24 hours, compared to control) worked out at 1.5 fold. Also, in the assay with MDA-MB-453 cells (MDA-MB-453, FIG. 4, 24 hours), the “increase in GJIC” value was 20-50%. In addition, the “effect on gap junction intercellular communication” value with MDA-MB-453 cells (MDA-MB-453, 500 nM) was “Increase”; in the assay with MCF-7, “No effect”; with ZR75, “Decrease”; in the assay on HT29, “No effect”; with SW620 colon cancer cells (Table 3, 300 nM), “Increase”. Further, the “gap junction activity as compared to the control” value in the assay on SW620 colon cancer cells (100, 200, 300 and 500 nM, 24 hours) is “increased”.
As to `COc1cc(N)c2nccc(C)c2c1Oc1cccc(C(F)(F)F)c1` [PQ3, 8-Amino-6-methoxy-4-methyl-5-(3-trifluoromethylphenyloxy)quinoline], the inhibition at 10 µM in the assay on R28 cells (Rattus norvegicus, R28, 40 min, as compared with the control, read-out: inhibitory activity on gap junction dye transfer) is approximately 20%. Moreover, in assay [1], the “effect on breast cancer cell colony growth” value is “Increase”. Also, in the assay on MDA-MB-453 cells (10 μM, 24 hours, compared to control or DMSO), the “decrease in gap junction activity (GJIC)” value was 40-50% and 50%. Besides, the “effect on gap junction intercellular communication” value is on record as “Decrease” in the assay on MDA-MB-453 cells (MDA-MB-453, concentration not given); “Decrease” in the assay with MCF-7; “No effect” in the assay with ZR75; “Increase” with HT29; “Increase” with SW620 colon cancer cells (Table 3, 500 nM).

The values above are taken from patent US8809368B2, “Compounds affecting gap junction activity” (Kansas State University Research Foundation, priority 2006, dated 2014).
